{"source": "patent US8080404B1", "about": "“Enzymatic decontamination” (priority 2005, dated 2011)", "test_system": "Bacillus anthracis NNR1Δ1 spores", "format": "cell-based"}
{"compound": "CCCCCCCCCCCC[N+](C)(C)CCCS(=O)(=O)[O-]", "note": "[3-(dodecyldimethylamino) propane sulfonate]", "values": [{"measurement": "promotion of spore killing by zwitterionic surfactant", "value": "most efficient at promoting spore killing"}]}
{"compound": "CC(=O)O", "note": "[acetic acid]", "values": [{"measurement": "kill rate with acetyl donor", "value": "enhanced the kill rate to about the same degree as did 0.125% acetylsalicylic acid"}]}
{"compound": "CC(=O)Oc1ccccc1C(=O)O", "note": "[acetylsalicylic acid]", "values": [{"measurement": "efficiency of spore killing with acetyl donor", "value": "increasing concentrations of acetylsalicylic acid resulted in increased efficiency of spore killing"}]}
{"compound": "octyl phenol ethoxylate [triton X-100]", "values": [{"measurement": "spore kill efficiency with surfactant", "value": "most efficient formulation for spore inactivation"}]}
